In brackets after ≈: the same amount, converted by molar mass.
Experiments:
[1] = target: T1, Phosphatidylinositol 4,5-bisphosphate 3-kinase catalytic subunit alpha isoform (Homo sapiens, UniProt P42336)
Description: Inhibition of PI3Kalpha-mediated AKT Ser 473 phosphorylation in human PC3 cells

[2] = target: T1, Phosphatidylinositol 4,5-bisphosphate 3-kinase catalytic subunit alpha isoform; assay: Inhibition of recombinant PI3Kalpha (unknown origin)-mediated 3,4,5-inositoltriphosphate formation after 30 mins by TAMRA-PIP3-based competitive fluorescence polarization assay
[3] = Kinetic solubility of the compound by dry down method; format: physicochemical; conditions: read-out: Kinetic_solubility
[4] = Clearance in human liver microsomes; format: ADME, Microsome
[5] = tested on: Mus musculus; assay: Unbound AUC in nude mouse at 50 mg/kg; format: ADME, organism-based; parameters: dose 50 mg/kg; conditions: in vivo
[6] = Clearance in rat liver microsomes; format: ADME, Microsome
[7] = Plasma clearance in Sprague-Dawley rat at 1 mg/kg, iv; format: ADME, organism-based; parameters: dose 1 mg/kg, route intravenous
[8] = tested on: MCF7; assay: Antiproliferative activity against human MCF7 cells expressing neo-HER2 after 3 days by CellTiter-Glo assay; format: functional, cell-based; conditions: MCF7, 72 h
[9] = tested on: Mus musculus; assay: Unbound AUC in nude mouse at 25 mg/kg; format: ADME, organism-based; parameters: dose 25 mg/kg; conditions: in vivo
[10] = Thermodynamic solubility of the compound at pH 7.4; format: physicochemical; conditions: buffer, read-out: Therm_solubility
[11] = Apparent permeability from apical to basal side of MDCK cells; format: ADME, cell-based, Canis lupus familiaris; conditions: dog
[12] = tested on: PC-3; assay: Antiproliferative activity against human PC3 cells after 4 days by CellTiter-Glo assay; format: functional, cell-based; conditions: PC-3, 96 h
[13] = tested on: Mus musculus; assay: Unbound AUC in nude mouse at 100 mg/kg; format: ADME, organism-based; parameters: dose 100 mg/kg; conditions: in vivo

T1 sequence (P42336 whole entry, canonical isoform): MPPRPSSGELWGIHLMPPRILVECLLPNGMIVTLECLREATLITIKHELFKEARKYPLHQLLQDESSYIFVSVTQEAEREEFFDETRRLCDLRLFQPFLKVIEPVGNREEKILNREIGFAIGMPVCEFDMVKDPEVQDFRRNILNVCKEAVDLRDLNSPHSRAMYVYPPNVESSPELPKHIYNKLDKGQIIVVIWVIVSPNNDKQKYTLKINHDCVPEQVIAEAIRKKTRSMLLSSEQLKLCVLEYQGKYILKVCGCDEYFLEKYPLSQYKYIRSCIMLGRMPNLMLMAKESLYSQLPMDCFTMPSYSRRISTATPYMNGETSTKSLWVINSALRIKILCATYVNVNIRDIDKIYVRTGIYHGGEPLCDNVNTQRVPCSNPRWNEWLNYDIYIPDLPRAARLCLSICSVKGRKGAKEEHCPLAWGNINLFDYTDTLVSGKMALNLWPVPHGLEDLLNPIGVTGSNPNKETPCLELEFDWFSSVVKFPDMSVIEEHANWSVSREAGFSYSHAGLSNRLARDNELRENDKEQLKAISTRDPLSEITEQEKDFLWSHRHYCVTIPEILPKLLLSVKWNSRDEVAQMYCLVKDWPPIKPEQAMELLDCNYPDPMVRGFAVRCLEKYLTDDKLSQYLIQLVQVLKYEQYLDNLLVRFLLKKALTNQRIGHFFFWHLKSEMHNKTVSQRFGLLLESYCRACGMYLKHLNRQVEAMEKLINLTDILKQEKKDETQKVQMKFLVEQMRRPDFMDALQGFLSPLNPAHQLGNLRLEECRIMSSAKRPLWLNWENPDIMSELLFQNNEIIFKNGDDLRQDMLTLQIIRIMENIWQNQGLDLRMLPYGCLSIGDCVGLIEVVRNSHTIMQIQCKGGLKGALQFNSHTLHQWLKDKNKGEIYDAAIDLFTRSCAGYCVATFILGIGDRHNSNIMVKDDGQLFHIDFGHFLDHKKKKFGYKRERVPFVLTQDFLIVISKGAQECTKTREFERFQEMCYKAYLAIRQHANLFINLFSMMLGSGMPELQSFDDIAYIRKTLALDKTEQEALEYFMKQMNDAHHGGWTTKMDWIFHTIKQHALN

Structure (SMILES)	IC50 [1] [µM]	IC50 [2] [µM]	solubility kinetic [3] [µM]	CLhep predicted [4] [mL/min/kg]	CLhep predicted [6] [mL/min/kg]	also measured
CN(C(=O)c1cc2c(s1)-c1ncccc1OCC2)c1ccccc1Cl	> 1	0.007	41 (≈ 15.2 µg/mL)			
NC(=O)c1ccc2c(c1)OCCc1cc(-c3ncnn3CC(F)(F)F)sc1-2	0.487	0.007	> 200	7	12	clearance [7]: 11 mL/min/kg
NC(=O)c1ccc2c(c1)OCCc1cc(-c3ncnn3C3CCC3)sc1-2	0.563	0.008	37 (≈ 13.6 µg/mL)	19	44	clearance [7]: 61 mL/min/kg
NC(=O)c1ccc2c(c1)OCCc1cc(-c3ncnn3CCO)sc1-2	> 1	0.015	> 200	10	25	
Clc1ccccc1-c1ocnc1-c1cc2c(s1)-c1ncccc1OCC2	0.25	0.012	41 (≈ 15.6 µg/mL)			
CC(C)n1ncnc1-c1cc2c(s1)-c1ccc(C(N)=O)cc1OCC2			> 200	10	29	fAUC [5]: 13.6 µM·h; clearance [7]: 13 mL/min/kg; fAUC [9]: 5.7 µM·h; solubility thermodynamic [10]: 53 µg/mL (≈ 150 µM); Papp A→B [11]: 20 ×10⁻⁶ cm/s; fAUC [13]: 17.8 µM·h
CN(C(=O)c1cc2c(s1)-c1ccccc1OCC2)c1ccc(F)cc1F	> 1	0.052				
CN(C)CCn1ncnc1-c1cc2c(s1)-c1ccc(C(N)=O)cc1OCC2		0.142	128 (≈ 49.1 µg/mL)	14	38	
CN(C(=O)c1cc2c(s1)-c1ccccc1OCC2)C1CCCCC1		0.885				
Clc1ccccc1-n1cnnc1-c1cc2c(s1)-c1ccccc1OCC2	0.074	0.0073	15 (≈ 5.7 µg/mL)			
CC(C)Cn1ncnc1-c1cc2c(s1)-c1ccc(C(N)=O)cc1OCC2	0.279	0.004	> 200	19	49	clearance [7]: 112 mL/min/kg
CC(C)N(C)C(=O)c1cc2c(s1)-c1ccccc1OCC2		> 2				

Second part, led by results:

IC50 [1] [µM]	IC50 [2] [µM]	solubility kinetic [3] [µM]	CLhep predicted [4] [mL/min/kg]	CLhep predicted [6] [mL/min/kg]	Structure (SMILES)	also measured
0.036	< 0.0014	41 (≈ 17.9 µg/mL)			CC(=O)Nc1nc(-c2cc3c(s2)-c2ncccc2OCC3)c(-c2ccccc2Cl)[nH]1	
0.023	< 0.0005	4 (≈ 1.64 µg/mL)			Nc1nc(-c2cc3c(s2)-c2ccccc2OCC3)c(-c2ccccc2Cl)s1	
0.017	< 0.0005	> 200	7	24	NC(=O)c1ccc2c(c1)OCCc1cc(-c3ncnn3-c3ccc(F)cc3F)sc1-2	fAUC [5]: 0.53 µM·h; clearance [7]: 38 mL/min/kg; IC50 [8]: 0.023 µM; fAUC [9]: 0.26 µM·h; solubility thermodynamic [10]: < 1 µg/mL; Papp A→B [11]: 13 ×10⁻⁶ cm/s; IC50 [12]: 0.18 µM; fAUC [13]: 0.54 µM·h
0.028	0.001	12 (≈ 5.06 µg/mL)			NC(=O)c1ccc2c(c1)OCCc1cc(-c3n[nH]cc3-c3ccccc3Cl)sc1-2	
0.1	0.0015		18	43	CN(C(=O)c1cc2c(s1)-c1ccc(C(N)=O)cc1OCC2)c1ccccc1Cl	IC50 [8]: > 4.1 µM; Papp A→B [11]: 2.1 ×10⁻⁶ cm/s; IC50 [12]: > 3.5 µM
0.02	< 0.0005	15 (≈ 6.58 µg/mL)			NC(=O)c1ccc2c(c1)OCCc1cc(-c3n[nH]c(=O)n3-c3ccccc3Cl)sc1-2	
0.06	< 0.0005	9 (≈ 3.81 µg/mL)			NC(=O)c1ccc2c(c1)OCCc1cc(-c3nncn3-c3ccccc3Cl)sc1-2	
0.11	0.0012	4.1 (≈ 1.56 µg/mL)			Fc1ccc(-n2ncnc2-c2cc3c(s2)-c2ccccc2OCC3)c(F)c1	
0.042	< 0.0005	> 200			NC(=O)c1ccc2c(c1)OCCc1cc(-c3nnnn3-c3ccccc3Cl)sc1-2	
0.481	0.004	> 200	11	15	CC(C)(O)Cn1ncnc1-c1cc2c(s1)-c1ccc(C(N)=O)cc1OCC2	clearance [7]: 57 mL/min/kg
0.02	0.0012				O=c1[nH]nc(-c2cc3c(s2)-c2ccccc2OCC3)n1-c1ccccc1Cl	

— ChEMBL document CHEMBL2321704, “Cis-amide isosteric replacement in thienobenzoxepin inhibitors of PI3-kinase” (Bioorg Med Chem Lett, 2013)
